One assay addresses Integrin alpha-4/beta-1 (Homo sapiens, UniProt P05556+P13612). The experiment in a line: Binding affinity towards VLA-4 (alpha4 beta-1) receptor in human Jurkat cells using [125I]VCAM-Ig as radioligand. Type of assay: cell-based.
In another assay the target is T1, Integrin alpha-4/beta-7 (Homo sapiens, UniProt P13612+P26010).
T1 sequence (P13612 whole entry): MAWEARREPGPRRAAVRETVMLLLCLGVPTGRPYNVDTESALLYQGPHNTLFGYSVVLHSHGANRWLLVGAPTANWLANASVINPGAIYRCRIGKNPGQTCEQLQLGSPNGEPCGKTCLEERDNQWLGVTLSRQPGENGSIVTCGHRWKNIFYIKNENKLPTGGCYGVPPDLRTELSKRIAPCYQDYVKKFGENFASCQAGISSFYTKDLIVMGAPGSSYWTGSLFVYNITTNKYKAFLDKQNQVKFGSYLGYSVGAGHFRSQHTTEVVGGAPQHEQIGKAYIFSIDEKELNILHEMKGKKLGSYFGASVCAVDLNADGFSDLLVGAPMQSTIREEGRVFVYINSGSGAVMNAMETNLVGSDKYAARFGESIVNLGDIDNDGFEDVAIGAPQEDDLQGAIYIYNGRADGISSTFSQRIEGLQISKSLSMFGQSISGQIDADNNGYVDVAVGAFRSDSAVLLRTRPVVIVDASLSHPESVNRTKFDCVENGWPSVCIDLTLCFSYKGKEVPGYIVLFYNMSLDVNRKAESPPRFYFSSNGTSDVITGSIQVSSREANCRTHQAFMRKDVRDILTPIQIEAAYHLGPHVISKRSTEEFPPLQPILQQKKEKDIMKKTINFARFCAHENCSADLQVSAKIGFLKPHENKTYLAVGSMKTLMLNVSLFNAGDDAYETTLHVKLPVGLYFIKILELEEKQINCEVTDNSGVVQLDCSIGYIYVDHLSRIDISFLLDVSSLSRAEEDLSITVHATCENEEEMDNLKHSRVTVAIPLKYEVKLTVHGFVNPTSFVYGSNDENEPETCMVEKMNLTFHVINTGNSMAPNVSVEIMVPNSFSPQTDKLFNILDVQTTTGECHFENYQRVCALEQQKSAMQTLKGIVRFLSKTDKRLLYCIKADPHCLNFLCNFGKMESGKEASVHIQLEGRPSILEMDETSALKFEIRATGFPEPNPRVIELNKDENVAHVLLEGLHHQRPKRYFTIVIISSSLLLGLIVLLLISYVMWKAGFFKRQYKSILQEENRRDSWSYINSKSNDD
T1 sequence (P26010 whole entry): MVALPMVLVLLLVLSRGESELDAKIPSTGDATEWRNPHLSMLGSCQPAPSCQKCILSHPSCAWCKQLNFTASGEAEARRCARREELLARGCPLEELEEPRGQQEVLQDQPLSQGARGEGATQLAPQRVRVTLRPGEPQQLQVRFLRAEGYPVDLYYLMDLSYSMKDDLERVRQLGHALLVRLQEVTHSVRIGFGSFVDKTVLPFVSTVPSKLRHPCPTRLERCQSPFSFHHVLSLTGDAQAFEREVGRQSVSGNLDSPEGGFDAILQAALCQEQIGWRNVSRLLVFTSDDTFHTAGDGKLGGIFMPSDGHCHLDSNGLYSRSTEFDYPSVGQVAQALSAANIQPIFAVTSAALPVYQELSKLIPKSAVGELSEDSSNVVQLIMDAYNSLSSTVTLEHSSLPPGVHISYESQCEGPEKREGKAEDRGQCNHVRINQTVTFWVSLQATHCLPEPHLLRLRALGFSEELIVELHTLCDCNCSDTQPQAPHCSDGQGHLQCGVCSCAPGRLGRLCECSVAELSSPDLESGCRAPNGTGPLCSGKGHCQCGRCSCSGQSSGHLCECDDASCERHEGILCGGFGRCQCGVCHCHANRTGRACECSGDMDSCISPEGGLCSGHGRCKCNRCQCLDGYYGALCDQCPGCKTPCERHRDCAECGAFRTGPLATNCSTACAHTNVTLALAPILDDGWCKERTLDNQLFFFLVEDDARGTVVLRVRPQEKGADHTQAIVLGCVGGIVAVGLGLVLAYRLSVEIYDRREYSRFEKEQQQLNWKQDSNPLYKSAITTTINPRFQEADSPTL
The experiment in a line: Binding affinity towards […] receptor in human RPMI-8866 B-cell line using [125I]MAdCAM-Ig as radioligand.

Integrin alpha-4/beta-1, sequence (P05556 whole entry, one chain of several): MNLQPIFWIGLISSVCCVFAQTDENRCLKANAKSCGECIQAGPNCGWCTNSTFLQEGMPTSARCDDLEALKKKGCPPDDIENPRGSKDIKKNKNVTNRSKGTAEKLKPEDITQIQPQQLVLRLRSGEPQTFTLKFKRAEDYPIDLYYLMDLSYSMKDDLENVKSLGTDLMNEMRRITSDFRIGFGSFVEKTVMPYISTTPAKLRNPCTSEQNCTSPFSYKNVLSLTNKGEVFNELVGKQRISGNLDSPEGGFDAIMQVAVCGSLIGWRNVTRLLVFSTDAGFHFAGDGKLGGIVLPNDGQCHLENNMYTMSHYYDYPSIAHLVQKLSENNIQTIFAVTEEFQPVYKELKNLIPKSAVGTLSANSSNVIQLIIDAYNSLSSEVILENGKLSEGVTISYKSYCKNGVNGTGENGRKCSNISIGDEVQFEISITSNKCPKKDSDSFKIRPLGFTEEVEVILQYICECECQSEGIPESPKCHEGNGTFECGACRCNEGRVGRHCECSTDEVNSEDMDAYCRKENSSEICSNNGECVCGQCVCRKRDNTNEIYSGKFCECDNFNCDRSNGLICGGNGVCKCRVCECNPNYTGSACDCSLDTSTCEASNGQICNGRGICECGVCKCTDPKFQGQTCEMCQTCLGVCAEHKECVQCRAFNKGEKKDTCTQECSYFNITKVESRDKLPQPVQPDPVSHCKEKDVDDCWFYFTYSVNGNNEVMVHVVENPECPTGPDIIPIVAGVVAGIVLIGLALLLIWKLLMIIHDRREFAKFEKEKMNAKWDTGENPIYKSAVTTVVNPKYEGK

Turning to `COc1cccc(OC)c1-c1ccc(C[C@H](NC(=O)C2(S(=O)(=O)c3ccccc3)CCCCC2)C(=O)O)cc1`, the IC50 at Integrin alpha-4/beta-1 was 0.19 nM; on Integrin alpha-4/beta-7, 13 nM. Taken in the same sequence, the figures for `COc1ccccc1-c1ccc(C[C@H](NC(=O)C2(S(=O)(=O)c3ccccc3)CCCN(C)C2)C(=O)O)cc1` (some centres not stated) were 6.6 nM and 5790 nM.

Take `COc1cccc(OC)c1-c1ccc(C[C@H](NC(=O)C2(S(=O)(=O)c3ccc(F)cc3)CCCC2)C(=O)O)cc1`: the figures for the IC50 at Integrin alpha-4/beta-1 and on Integrin alpha-4/beta-7 were 0.07 nM and 5 nM, respectively. Turning to `CCCCN1CCC(C(=O)N[C@@H](Cc2ccc(-c3ccccc3OC)cc2)C(=O)O)(S(=O)(=O)c2ccccc2)CC1`, the IC50 worked out at 51 nM on Integrin alpha-4/beta-1 and 9180 nM at Integrin alpha-4/beta-7. Take `COc1cccc(OC)c1-c1ccc(C[C@H](NC(=O)C2(S(=O)(=O)c3ccccc3)CCC2)C(=O)O)cc1`: the IC50 at Integrin alpha-4/beta-1 amounted to 0.17 nM; at Integrin alpha-4/beta-7 it was 3.2 nM.

With `COc1ccccc1-c1ccc(C[C@H](NC(=O)C2(S(=O)(=O)c3ccccc3)CCN(C)CC2)C(=O)O)cc1`, the IC50 on Integrin alpha-4/beta-1 amounted to 3 nM; on Integrin alpha-4/beta-7, 2000 nM. In the same order, the values of `COc1cccc(OC)c1-c1ccc(C[C@H](NC(=O)C2(S(=O)(=O)c3ccccc3)CCOC2)C(=O)O)cc1` (some centres not stated) are 0.1 nM and 5.2 nM. `O=C(O)[C@H](Cc1ccc(-c2ccccc2)cc1)NC(=O)C1(S(=O)(=O)c2ccccc2)Cc2ccccc2C1`: the IC50 came out at 680 nM at Integrin alpha-4/beta-1 and 7340 nM on Integrin alpha-4/beta-7. Taken in the same sequence, the figures for `COc1ccccc1-c1ccc(C[C@H](NC(=O)C2(S(=O)(=O)c3ccccc3)CCN(c3ccccc3)CC2)C(=O)O)cc1` were 23 nM and 1260 nM.

Turning to `COc1cccc(OC)c1-c1ccc(C[C@H](NC(=O)C2(S(=O)(=O)CCN3CCOCC3)CCCNC2)C(=O)O)cc1` (some centres not stated), the IC50 at Integrin alpha-4/beta-1 was found to be 0.67 nM; on Integrin alpha-4/beta-7, 257 nM.

As to `COc1cccc(OC)c1-c1ccc(C[C@H](NC(=O)C2(S(=O)(=O)CCNCCCN(C)C)CCCNC2)C(=O)O)cc1` (some centres not stated), the IC50 came out at 0.37 nM on Integrin alpha-4/beta-1 and 179 nM at Integrin alpha-4/beta-7. In turn, `CCCCCCCCS(=O)(=O)C1(C(=O)N[C@@H](Cc2ccc(-c3ccccc3)cc2)C(=O)O)CCCC1` displayed an IC50 on Integrin alpha-4/beta-1 of 150 nM. Consider `COc1cccc(OC)c1-c1ccc(C[C@H](NC(=O)C2(S(=O)(=O)c3cccc(Br)c3)CCCNC2)C(=O)O)cc1` (some centres not stated), for which the IC50 at Integrin alpha-4/beta-1 is 0.13 nM; on Integrin alpha-4/beta-7, 83 nM. Turning to `CCN1CCC(C(=O)N[C@@H](Cc2ccc(-c3ccccc3OC)cc2)C(=O)O)(S(=O)(=O)c2ccccc2)CC1`, the IC50 at Integrin alpha-4/beta-1 is 31 nM; on Integrin alpha-4/beta-7 it was 1230 nM.

`COc1cccc(OC)c1-c1ccc(C[C@H](NC(=O)C2(S(=O)(=O)c3ccc(Br)cc3)CCCNC2)C(=O)O)cc1` (some centres not stated): the IC50 came out at 0.19 nM on Integrin alpha-4/beta-1 and 94 nM at Integrin alpha-4/beta-7. For `COc1cccc(OC)c1-c1ccc(C[C@H](NC(=O)C2(S(=O)(=O)c3ccccc3)CCCC2)C(=O)O)cc1`, the IC50 on Integrin alpha-4/beta-1 stood at 0.11 nM; on Integrin alpha-4/beta-7, 5 nM.

Take `COc1ccccc1-c1ccc(C[C@H](NC(=O)C2(S(=O)(=O)c3ccccc3)CC[S+]([O-])CC2)C(=O)O)cc1` (some centres not stated): the IC50 at Integrin alpha-4/beta-1 is 4.4 nM; at Integrin alpha-4/beta-7, 318 nM. For `CCS(=O)(=O)C1(C(=O)N[C@@H](Cc2ccc(-c3ccccc3OC)cc2)C(=O)O)CCCC1`, the IC50 on Integrin alpha-4/beta-1 was 0.53 nM; at Integrin alpha-4/beta-7 it was 58 nM. Taken in the same sequence, the figures for `COc1cccc(OC)c1-c1ccc(C[C@H](NC(=O)C2(S(C)(=O)=O)CCCNC2)C(=O)O)cc1` (some centres not stated) were 0.19 nM and 21 nM. Turning to `COc1ccccc1-c1ccc(C[C@H](NC(=O)C2(S(=O)(=O)c3ccccc3)CCCNC2)C(=O)O)cc1` (some centres not stated), the values for the IC50 on Integrin alpha-4/beta-1 and on Integrin alpha-4/beta-7 were 0.48 nM and 622 nM, respectively. As for `COc1ccccc1-c1ccc(C[C@H](NC(=O)C2(S(=O)(=O)Nc3ccccc3)CCCC2)C(=O)O)cc1`, the IC50 on Integrin alpha-4/beta-1 turned out to be 15 nM; on Integrin alpha-4/beta-7, 521 nM. Take `COc1ccccc1-c1ccc(C[C@H](NC(=O)C2(S(=O)(=O)c3ccccc3)CCOCC2)C(=O)O)cc1`: the half-maximal inhibitory concentration (IC50) on Integrin alpha-4/beta-1 was 0.55 nM; at Integrin alpha-4/beta-7, 150 nM. For `COc1cccc(OC)c1-c1ccc(C[C@H](NC(=O)C2(S(=O)(=O)c3cncn3C)CCCNC2)C(=O)O)cc1` (some centres not stated), the values for the IC50 at Integrin alpha-4/beta-1 and at Integrin alpha-4/beta-7 were 0.14 nM and 46 nM, respectively. On to `COc1ccccc1-c1ccc(C[C@H](NC(=O)C2(S(=O)(=O)c3ccccc3)CCNCC2)C(=O)O)cc1`, for which the IC50 on Integrin alpha-4/beta-1 is 20 nM; at Integrin alpha-4/beta-7 it was 1900 nM. `COc1ccccc1-c1ccc(C[C@H](NC(=O)C2(S(=O)(=O)c3ccccc3)CCSCC2)C(=O)O)cc1`: the figures for the IC50 at Integrin alpha-4/beta-1 and at Integrin alpha-4/beta-7 were 4.1 nM and 128 nM, respectively. In the same order, the values of `COc1cccc(OC)c1-c1ccc(C[C@H](NC(=O)C2(S(=O)(=O)c3ccc(N4CCCC4)cc3)CCCNC2)C(=O)O)cc1` (some centres not stated) are 0.36 nM and 536 nM. Take `CCN(CC)S(=O)(=O)C1(C(=O)N[C@@H](Cc2ccc(-c3ccccc3OC)cc2)C(=O)O)CCCC1`: the IC50 is 0.97 nM on Integrin alpha-4/beta-1 and 54 nM at Integrin alpha-4/beta-7.

Regarding `COc1ccccc1-c1ccc(C[C@H](NC(=O)C2(S(=O)(=O)c3ccccc3)CCN(C(C)(C)C)CC2)C(=O)O)cc1`, the IC50 was found to be 56 nM on Integrin alpha-4/beta-1 and 9220 nM on Integrin alpha-4/beta-7. Consider `COc1ccccc1-c1ccc(C[C@H](NC(=O)C2(S(=O)(=O)c3ccccc3)CCS(=O)(=O)CC2)C(=O)O)cc1`, for which the figures for the IC50 at Integrin alpha-4/beta-1 and on Integrin alpha-4/beta-7 were 1.3 nM and 70 nM, respectively. Taken in the same sequence, the figures for `COc1cccc(OC)c1-c1ccc(C[C@H](NC(=O)C2(S(=O)(=O)c3ccccc3Br)CCCNC2)C(=O)O)cc1` (some centres not stated) were 0.15 nM and 96 nM. For `COc1ccccc1-c1ccc(C[C@H](NC(=O)C2(S(=O)(=O)c3ccc(F)cc3)CCCC2)C(=O)O)cc1`, the results for the IC50 on Integrin alpha-4/beta-1 and on Integrin alpha-4/beta-7 were 0.27 nM and 40 nM, respectively. Taken in the same sequence, the figures for `COc1ccccc1-c1ccc(C[C@H](NC(=O)C2(S(=O)(=O)c3ccccc3)CCC2)C(=O)O)cc1` were 1.2 nM and 16 nM. In the same order, the values of `COc1cccc(OC)c1-c1ccc(C[C@H](NC(=O)C2(S(=O)(=O)c3ccccc3)CCSCC2)C(=O)O)cc1` are 0.22 nM and 5 nM. For the compound `COc1cccc(OC)c1-c1ccc(C[C@H](NC(=O)C2(S(=O)(=O)Cc3ccccc3)CCCNC2)C(=O)O)cc1` (some centres not stated), the values for the IC50 at Integrin alpha-4/beta-1 and on Integrin alpha-4/beta-7 were 0.77 nM and 436 nM, respectively. With `COc1cccc(OC)c1-c1ccc(C[C@H](NC(=O)C2(S(=O)(=O)c3ccccc3)CCN(C)CC2)C(=O)O)cc1`, the IC50 on Integrin alpha-4/beta-1 was 1.1 nM; at Integrin alpha-4/beta-7, 466 nM. Consider `COc1ccccc1-c1ccc(C[C@H](NC(=O)C2(S(=O)(=O)C3CCCC3)CCCC2)C(=O)O)cc1`, for which the values for the IC50 on Integrin alpha-4/beta-1 and on Integrin alpha-4/beta-7 were 1.2 nM and 147 nM, respectively.

In the case of `COc1cccc(OC)c1-c1ccc(C[C@H](NC(=O)C2(S(=O)(=O)c3ccccc3N3CCCC3)CCCNC2)C(=O)O)cc1` (some centres not stated), the IC50 at Integrin alpha-4/beta-1 is 0.39 nM; on Integrin alpha-4/beta-7 it was 388 nM. As for `COc1ccccc1-c1ccc(C[C@H](NC(=O)C2(S(=O)(=O)c3ccccc3)CCOC2)C(=O)O)cc1` (some centres not stated), the IC50 on Integrin alpha-4/beta-1 worked out at 0.77 nM; at Integrin alpha-4/beta-7 it was 45 nM. `COc1cccc(OC)c1-c1ccc(C[C@H](NC(=O)C2(S(=O)(=O)c3cn(C)cn3)CCCNC2)C(=O)O)cc1` (some centres not stated): the IC50 was found to be 0.46 nM at Integrin alpha-4/beta-1 and 97 nM on Integrin alpha-4/beta-7.

The term IC50 denotes the concentration at which inhibition is half-maximal. A higher IC50 goes with lower potency.

Values taken from ChEMBL document CHEMBL1145739, “N-(3-phenylsulfonyl-3-piperidinoyl)-phenylalanine derivatives as potent, selective VLA-4 antagonists” (Bioorg Med Chem Lett, 2003).
